The values below come from patent US12150995B2, “IRAK degraders and uses thereof” (Kymera Therapeutics, Inc., priority 2020, dated 2024).

Molecules are shown by their SMILES. Bounds are passed on as bounds.

For the experiment, the target named is T1, IRAK4 (Homo sapiens, UniProt Q9NWZ3).
T1 construct: endogenous in cells; host or cells: OCI-LY10
T1 sequence (Q9NWZ3 1-460): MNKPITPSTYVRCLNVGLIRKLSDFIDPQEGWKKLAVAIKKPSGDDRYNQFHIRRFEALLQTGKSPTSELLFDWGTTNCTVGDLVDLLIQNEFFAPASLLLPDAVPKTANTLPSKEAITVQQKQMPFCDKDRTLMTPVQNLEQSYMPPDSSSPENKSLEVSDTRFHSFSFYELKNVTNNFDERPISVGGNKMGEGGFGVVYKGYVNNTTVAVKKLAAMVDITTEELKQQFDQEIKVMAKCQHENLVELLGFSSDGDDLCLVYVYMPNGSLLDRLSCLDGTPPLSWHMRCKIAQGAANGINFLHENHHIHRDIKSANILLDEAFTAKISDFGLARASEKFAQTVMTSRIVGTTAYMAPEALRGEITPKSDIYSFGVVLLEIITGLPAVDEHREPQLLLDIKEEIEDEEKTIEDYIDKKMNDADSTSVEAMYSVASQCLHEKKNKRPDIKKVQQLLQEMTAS
The experiment in a line: IRAK4 MSD Degradation in OCI-LY10. The note with it: OCI-LY10 cells, Meso Scale Discovery, incubated 4 to 24 hours. It is filed as cell-based. The method in brief: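 OCI-LY10 cells (300,000/well) exposed to an 8-point 1:3 series from a top concentration of 1 to 10 μM for 4 to 24 h at 37 °C. IRAK4 remaining in RIPA lysates quantified by MSD sandwich immunoassay; DC50 from a three-parameter logistic fit.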

In turn, `COc1cc2nn([C@H]3CC[C@H](CN(C)[C@H]4CC[C@@H](c5cccc6c5n(C)c(=O)n6C5CCC(=O)NC5=O)CC4)CC3)cc2cc1NC(=O)c1cccc(C(F)(F)F)n1` (stereo partly shown) [I-6, N-[2-[4-[[[4-[1-(2,6-dioxo-3-piperidyl)-3-methyl-2-oxo-benzimidazol-4-yl]cyclohexyl]-methyl-amino]methyl]cyclohexyl]-6-methoxy-indazol-5-yl]-6-(trifluoromethyl)pyridine-2-carboxamide] showed a DC50 below 10 nM.

Compound `Cn1c(=O)n(C2CCC(=O)NC2=O)c2cccc(N3CC4CC(C3)N4C[C@H]3CC[C@H](n4cc5cc(NC(=O)c6cccc(C(F)(F)F)n6)c(C(C)(C)O)cc5n4)CC3)c21` (stereo partly shown) [I-232] returned a DC50 below 10 nM.

For the compound `COc1cc2nn([C@H]3CC[C@H](CN4CCC(c5c(OC)ccc6c5n(C)c(=O)n6C5CCC(=O)NC5=O)CC4)CC3)cc2cc1NC(=O)c1cncc(Cl)c1` (stereo partly shown) [I-111], the DC50 is below 10 nM.

For `CC(C)Nc1cc(-c2ccc3cc(C#N)cnn23)ncc1C(=O)N[C@H]1CC[C@H](CN2CCN(c3cccc4c(N5CCC(=O)NC5=O)cncc34)CC2)CC1` [I-373], the DC50 fell in the range of 10 to 50 nM.

Compound `COc1cc2nn([C@H]3CC[C@H](CN4CCN(c5cc(F)cc6c(N7CCC(=O)NC7=O)cncc56)CC4)CC3)cc2cc1NC(=O)c1cccc(C(F)(F)F)n1` [I-413] showed a DC50 below 10 nM.

For the compound `Cn1c(=O)n(C2CCC(=O)NC2=O)c2cccc(N3CCN(C[C@H]4CC[C@H](n5cc6cc(NC(=O)c7cccc(C(F)(F)F)n7)c(N7CCCC7)cc6n5)CC4)CC3)c21` (stereo partly shown) [I-392], the 50% degradation concentration (DC50) lay in the range of 10 to 50 nM.

In the case of `COc1cc2nn([C@H]3CC[C@H](CN4CCN(c5cccc6c5n(C)c(=O)n6C5CCC(=O)NC5=O)C[C@@H]4C)CC3)cc2cc1NC(=O)c1cccc(C(F)(F)F)n1` (stereo partly shown) [I-246], the 50% degradation concentration (DC50) lay within 10 to 50 nM.

`COc1cc2nn([C@H]3CC[C@H](CN4CCN(c5cccc6c(N7CCC(=O)NC7=O)cncc56)CC4)CC3)cc2cc1NC(=O)c1cccc(C(F)(F)F)n1` [I-211]: the 50% degradation concentration (DC50) is below 10 nM.

The compound `Cn1c(=O)n(C2CCC(=O)NC2=O)c2cccc(C3CCN(C[C@H]4CC[C@H](n5cc6cc(NC(=O)c7cccc(C(F)(F)F)n7)c(C#N)cc6n5)CC4)CC3)c21` (stereo partly shown) [I-189] registered a half-maximal degradation concentration (DC50) below 10 nM.

`CC(C)(O)c1cc2nc([C@H]3CC[C@H](C(=O)N4CCN(CCCNc5cccc6c5C(=O)N(C5CCC(=O)NC5=O)C6=O)CC4)CC3)sc2cc1NC(=O)c1cncc(C#N)c1` (stereo partly shown) [I-451] displayed a DC50 of 50 to 100 nM.

`Cc1c(C2CCN(C[C@H]3CC[C@H](n4cc5cc(NC(=O)c6cccc(C(F)(F)F)n6)ccc5n4)CC3)CC2)ccc2c1n(C)c(=O)n2C1CCC(=O)NC1=O` (stereo partly shown) [I-202] showed a 50% degradation concentration (DC50) above 200 nM.

`Cn1c(=O)n(C2CCC(=O)NC2=O)c2cccc(N3CCN(C[C@H]4CC[C@H](n5cc6cc(NC(=O)c7cccc(C(F)(F)F)n7)c(C(=O)O)cc6n5)CC4)CC3)c21` (stereo partly shown) [I-415, 2-[4-[[4-[1-(2,6-dioxo-3-piperidyl)-3-methyl-2-oxo-benzimidazol-4-yl]piperazin-1-yl]methyl]cyclohexyl]-5-[[6-(trifluoromethyl)pyridine-2-carbonyl]amino]indazole-6-carboxylic acid] came in with a DC50 of 10 to 50 nM.

As to `CN(C[C@H]1CC[C@H](c2cc3cc(NC(=O)c4cccc(C(F)(F)F)n4)c(F)cc3n2C)CC1)C1CCN(c2cccc3c2n(C)c(=O)n3C2CCC(=O)NC2=O)CC1` (stereo partly shown) [I-59], the DC50 was above 200 nM.

As to `CC(C)Nc1cc(-n2ccc3cc(C(F)(F)F)cnc32)ncc1C(=O)N[C@H]1CC[C@H](CN2CCN(c3cccc4c3n(C)c(=O)n4C3CCC(=O)NC3=O)CC2)CC1` (stereo partly shown) [I-369], the DC50 was in the range of 100 to 200 nM.

For the compound `O=C1CCN(c2cncc3c(C4CCN(C[C@H]5CC[C@H](n6cc7cc(NC(=O)c8cccc(C(F)(F)F)n8)c(C(F)F)cc7n6)CC5)CC4)cccc23)C(=O)N1` [I-293], the 50% degradation concentration (DC50) was below 10 nM.

Turning to `Cn1c(=O)n(C2CCC(=O)NC2=O)c2ccc(F)c(C3CCN(C[C@H]4C[C@H](n5cc6cc(NC(=O)c7cccc(C(F)(F)F)n7)c(Cl)cc6n5)C4)CC3)c21` (stereo partly shown) [I-142], the DC50 is 10 to 50 nM.

Usually DC50 stands for the concentration giving 50% degradation. Higher therefore signals degradation only at high concentration.
